Measurements reported in patent US20170340905A1, “MACROCYCLIC KETONE AS MALODOR COUNTERACTING INGREDIENT” (Firmenich SA, priority 2014, published 2017).
≈ marks a conversion by molar mass, not a printed value. Marks after values point to notes of the source that are not given here.

Legend:
[1] = Sensory malodor reduction test, Sniffin' Sticks odor pens, tobacco malodor; conditions: for Average Perceived Malodor Intensity (APMI) / Average Perceived Overall Odor Intensity (APOOI): scale 0-10
Experimental: (§1) The Compound 1, as defined above, was tested, using current sensory analysis methods, for its ability to reduce the perception of bathroom, tobacco, kitchen, pet and body malodors.
The tobacco malodor was prepared by extraction of cigarette debris, comprising: ash; filter; and, paper. The debris from 30 smoked Marlboro lied cigarettes (origin: Philip Morris International) was collected in a 500 ml glass powder jar with a screw closure. 300 ml of ethanol was added. The combination was mixed in a Turbula mixer for 8 hours and then filtered through a Whatman Grade 4 filter paper. The filtrate was used as the tobacco malodor.
(§2) In the following description, the test concentration of the malodor sample used in each case was selected so as to provide a perceived malodor intensity, when evaluated in Sniffin' Sticks odor pens as described below, that was approximately of the order of 6 units on the scale described under Section C below.
Tobacco malodor: 50% by weight in propylene glycol
(§3) The test concentration of the Compound 1 used in each of the malodor reduction tests was selected so as to provide a perceived intensity, when evaluated in Sniffin' Sticks odor pens as described below, that was approximately of the order of 6 units on the scale described under Section C below. The concentration of Compound 1 that was perceived as comprising an odor intensity of about 6 when evaluated in Sniffin' Sticks odor pens was 16% by weight in propylene glycol.
(§4) Stock solutions were prepared as follows: • Compound 1 32% by weight: 12.8 g of Compound 1 was mixed with 27.2 g of propylene glycol. • Bathroom malodor 0.6% by weight: 0.6 g of bathroom malodor was mixed with 99.4 g of propylene glycol. • Kitchen malodor 60% by weight: 12.0 g of kitchen malodor was mixed with 8.0 g of propylene glycol. • Body malodor 1% by weight: 1.0 g of body malodor was mixed with 99.0 g of propylene glycol. • Pet malodor 1% by weight: 1.0 g of pet malodor was mixed with 99.0 g of propylene glycol. • The tobacco malodor was used as is.
(§5) Each sensory test comprised 3 samples: a malodor only sample; a test sample comprising a combination of […] and the test malodor; and, a Compound 1 only sample. The samples for the sensory tests were prepared as follows:
(§6) Malodor only sample: in a separate beaker 3.0 g of malodor stock solution, was mixed with 3.0 g of propylene glycol. Once fully homogenized, 2.0 g of the resulting solution was applied to the absorbent fiber in the body of a Sniffin' Stick odor pen (origin: Burghart Messtechnik GmbH). The odor pen was immediately capped and allowed to equilibrate for 24 hours before use.
(§7) Compound 1 only sample: in a separate beaker 3.0 g of Compound 1 stock solution was mixed with 3.0 g of propylene glycol. Once fully homogenized, 2.0 g of the resulting solution was applied to the absorbent fiber in the body of a Sniffin' Stick odor pen (origin: Burghart Messtechnik GmbH). The odor pen was immediately capped and allowed to equilibrate for 24 hours before use.
(§8) Test samples: in a separate beaker 3.0 g of Compound 1 stock solution was mixed with 3.0 g of malodor stock solution. Once fully homogenized, 2.0 g of the resulting solution was applied to the absorbent fiber in the body of a Sniffin' Stick odor pen (origin: Burghart Messtechnik GmbH). The odor pen was immediately capped and allowed to equilibrate for 24 hours before use.
The samples were assessed by a panel of 19 trained panelists. […]

[2] = Sensory malodor reduction test, Sniffin' Sticks odor pens, kitchen malodor; conditions: for Average Perceived Malodor Intensity (APMI) / Average Perceived Overall Odor Intensity (APOOI): scale 0-10
Experimental: as §1, §2
Kitchen malodor: 30% by weight in propylene glycol
as §3, §4, §5, §6, §7, §8
(§9) The samples were assessed by a panel of 19 trained panelists. By “trained panelists” we mean here individuals that had previously been screened for olfactive acuity and were experienced in rating the perfume and malodor intensity. Moreover, the panelists were prior acquainted with the malodor sample before carrying out the malodor reduction efficacy test.
(§10) Each test comprised a malodor only sample, a Compound 1 only sample, and a test sample that comprised Compound 1 and the malodor. […]

[3] = Sensory malodor reduction test, Sniffin' Sticks odor pens, bathroom malodor; conditions: for Average Perceived Overall Odor Intensity (APOOI) / Average Perceived Malodor Intensity (APMI): scale 0-10
Experimental: as §1, §2
Bathroom malodor: 0.3% by weight in propylene glycol
as §3, §4, §5, §6, §7, §8, §9, §10

[4] = Sensory malodor reduction test, Sniffin' Sticks odor pens, body malodor; conditions: for Average Perceived Malodor Intensity (APMI) / Average Perceived Overall Odor Intensity (APOOI): scale 0-10
Experimental: as §1, §2
Body malodor: 0.5% by weight in propylene glycol
as §3, §4, §5, §6, §7, §8, §9, §10

[5] = test system: Morganella morganii URI62; assay: MIC test in 96 well plates; type: cell-based; conditions: M. morganii, associated with urine/bathroom
Experimental: (§11) Bacterial solutions of four bacterial strains were prepared for MIC test as follows. Stock cultures stored at -80° C. were subcultured onto agar plate media, and incubated at 37° C. for 24 h to obtain single colonies. Single colonies of the primary cultures were inoculated into broth media and incubated at 37° C., 160 rpm overnight. Aliquots of overnight cultures were inoculated into 50 ml of fresh broth media, and incubated at 37° C., 160 rpm. When the OD reached the target value for each strain (see Table 1), cells were harvested by centrifugation at 5000 rpm for 10 min, and then resuspended in the same fresh broth media at the same volume before the centrifugation. Aliquots (1.1 ml) of each cell suspension were diluted in 200 ml of the same broth media as the bacterial solutions for the MIC test. [table] Sample solutions of casmirone and reference material ([…]) were prepared as follows. Stock solutions of 1% and 20% were prepared in ethanol, and then seven serial dilutions of each stock solution were prepared in ethanol to obtain a total of 16 solutions of casmirone or the reference material. Aliquot (10 μl) of each solution was used for MIC test. The tested final concentrations of each material were 29, 44, 66, 99, 148, 222, 333, 500, 590, 900, 1300, 2000, 3000, 4500, 6700, 10000 ppm. The test material control was trans-hexenal, a known material for MIC tests and control tests (e.g. see Int J Food Microbiol. 2010 January 1;136(3):304-9). MIC test were performed in 96 well plates. […] Column 1 contained bacterial solution only (the positive growth control), and column 12 contained growth media only (the negative growth control). Aliquots (10 μl) of sample solutions were mixed with 190 μl of bacterial solutions in growth media, at concentrations of 10^5 to 10^6 cfu/ml, in wells of the 96 well plates. Three replicates for solution. The 96 wells plates were incubated at 37° C., 160 rpm overnight. After incubation, wells of 96 well plates were examined. Turbid wells were regarded as an indication of microbial growth. Minimal inhibition concentration (MIC) was determined as the lowest concentration where no growth was observed. Average MIC value of the three replicates was calculated against each strain (see Table 3).

[6] = test system: Streptococcus agalactiae URI3; assay: MIC test in 96 well plates; type: cell-based; conditions: S. agalactiae, associated with urine/bathroom
Experimental: as §11

[7] = test system: Staphylococcus haemolyticus ATCC 114126; assay: MIC test in 96 well plates; type: cell-based; conditions: S. haemolyticus, associated with body odor
Experimental: as §11

[8] = test system: Staphylococcus aureus DSMZ 1104; assay: MIC test in 96 well plates; type: cell-based; conditions: S. aureus, associated with hygiene
Experimental: as §11

[9] = Sensory malodor reduction test, Sniffin' Sticks odor pens, pet malodor; conditions: for Average Perceived Malodor Intensity (APMI) / Average Perceived Overall Odor Intensity (APOOI): scale 0-10
Experimental: as §1, §2
Pet malodor: 0.5% by weight, in propylene glycol
as §3, §4, §5, §6, §7, §8, §9, §10

[10] = Compound 1 + Malodor vs Malodor Only
[11] = Compound 1 + Malodor: 1.00 g tobacco malodor, 0.32 g Compound 1, 0.68 g propylene glycol
[12] = Compound 1 Only: 0.32 g Compound 1, 1.68 g propylene glycol, tobacco malodor test
[13] = Compound 1 + Malodor: 0.60 g kitchen malodor, 0.32 g Compound 1, 1.08 g propylene glycol
[14] = Compound 1 Only: 0.32 g Compound 1, 1.68 g propylene glycol, kitchen malodor test
[15] = Compound 1 Only: 0.320 g Compound 1, 1.680 g propylene glycol, bathroom malodor test
[16] = Compound 1 + Malodor: 0.01 g body malodor, 0.32 g Compound 1, 1.67 g propylene glycol
[17] = Compound 1 Only: 0.32 g Compound 1, 1.68 g propylene glycol, body malodor test
[18] = Compound 1 + Malodor: 0.01 g pet malodor, 0.32 g Compound 1, 1.67 g propylene glycol
[19] = Compound 1 Only: 0.32 g Compound 1, 1.68 g propylene glycol, pet malodor test

For `O=C1CCC=CCCC=CCCC1` [Compound 1, 4,8-cyclododecadien-1-one], the “reducing the perceived intensity of tobacco malodor” value [1, 10] was “efficient”, the “Average Perceived Malodor Intensity (APMI)” value [1, 11] was 3.35 * and the “Average Perceived Overall Odor Intensity (APOOI)” value [1, 11] was 5.85. The “Average Perceived Malodor Intensity (APMI)” value [1, 12] was 1.27 *, the “Average Perceived Overall Odor Intensity (APOOI)” value [1, 12] was 6.07 and the “reducing the perceived intensity of kitchen malodor” value [2, 10] was “efficient”. The “Average Perceived Malodor Intensity (APMI)” value [2, 13] was 2.49 *, the “Average Perceived Overall Odor Intensity (APOOI)” value [2, 13] was 5.51 and the “Average Perceived Malodor Intensity (APMI)” value [2, 14] was 0.95 *. For the same molecule, the “Average Perceived Overall Odor Intensity (APOOI)” value [2, 14] was 5.78, the “reducing the perceived intensity of bathroom malodor” value [3, 10] was “efficient” and the “Average Perceived Overall Odor Intensity (APOOI)” value ([3]; Compound 1 + Malodor: 0.006 g bathroom malodor, 0.320 g Compound 1, 1.674 g propylene glycol) was 5.99. The “Average Perceived Malodor Intensity (APMI)” value ([3]; Compound 1 + Malodor: 0.006 g bathroom malodor, 0.320 g Compound 1, 1.674 g propylene glycol, 19 panelists) was 1.61 *, the “Average Perceived Malodor Intensity (APMI)” value [3, 15] was 0.91 * and the “Average Perceived Overall Odor Intensity (APOOI)” value [3, 15] was 5.75. The “reducing the perceived intensity of body malodor” value [4, 10] was “efficient”, the “Average Perceived Malodor Intensity (APMI)” value [4, 16] was 2.78 * and the “Average Perceived Overall Odor Intensity (APOOI)” value [4, 16] was 5.61. The “Average Perceived Malodor Intensity (APMI)” value [4, 17] was 0.83 *, the “Average Perceived Overall Odor Intensity (APOOI)” value [4, 17] was 6.39 and the activity in application [5] was “(compound 1 is efficiently active in application)”. The MIC ([5]; Morganella morganii, URI62, average of three replicates, 37° C. overnight) was 900 µg/mL (≈ 5.05 mM), the activity in application [6] was “(compound 1 is moderately active in application)” and the MIC ([6]; Streptococcus agalactiae, URI3, average of three replicates, 37° C. overnight) was 3430 µg/mL (≈ 19.3 mM). For the same molecule, the activity in application [7] was “(compound 1 is efficiently active in application)”, the MIC ([7]; Staphylococcus haemolyticus, ATCC114126, average of three replicates, 37° C. overnight) was 345 µg/mL (≈ 1.94 mM) and the activity in application [8] was “(compound 1 is efficiently active in application)”. The MIC ([8]; Staphylococcus aureus, DSMZ1104, average of three replicates, 37° C. overnight) was 333 µg/mL (≈ 1.87 mM), the “reducing the perceived intensity of pet malodor” value [9, 10] was “efficient” and the “Average Perceived Malodor Intensity (APMI)” value [9, 18] was 4.84 *. For the same molecule, the “Average Perceived Overall Odor Intensity (APOOI)” value [9, 18] was 6.70, the “Average Perceived Malodor Intensity (APMI)” value [9, 19] was 0.93 * and the “Average Perceived Overall Odor Intensity (APOOI)” value [9, 19] was 6.01.
